biological target: T1, human IBAT (Homo sapiens, UniProt Q12908); assay: In vitro assay using Cos 7 cells, transiently expressed human IBAT; assay type: cell-based; conditions: [3H]-taurocholate 8 μM uptake, 37° C., 60 minutes
T1 sequence (Q12908 1-348): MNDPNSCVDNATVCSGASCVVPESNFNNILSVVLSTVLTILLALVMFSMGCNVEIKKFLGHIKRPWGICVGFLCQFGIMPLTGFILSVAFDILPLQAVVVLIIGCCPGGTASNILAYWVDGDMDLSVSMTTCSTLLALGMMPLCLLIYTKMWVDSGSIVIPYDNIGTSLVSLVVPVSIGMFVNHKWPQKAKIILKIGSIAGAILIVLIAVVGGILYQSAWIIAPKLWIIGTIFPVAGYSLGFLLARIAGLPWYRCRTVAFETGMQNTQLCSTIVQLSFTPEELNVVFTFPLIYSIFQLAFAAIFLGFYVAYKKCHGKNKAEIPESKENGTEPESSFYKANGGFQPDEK
Description: In the present Test Example, an in vitro assay of compounds using Cos 7 cells as to inhibitory activity on transiently expressed human IBAT or rat IBAT transporter was performed according to the method described in Am. J. Physiol., 274, G157-169.
That is, […] cells/well of Cos 7 cells were seeded in a 24-well plate, and after one day, the cells were transfected with 0.3 μg/well of cDNA of human IBAT or rat IBAT using FuGENE6 (supplied from Roche). After culturing for one day after the transfection, the cells were washed once with the assay buffer, i.e., Hanks buffer containing 25 mM glucose and 10 mM HEPES (pH 7.4). The assay buffer was then replaced with the assay buffer containing the test compound. [^3H]-Taurocholate at a final concentration of 8 μM was added thereto and incubated at 37° C. for 60 minutes so that [^3H]-taurocholate was taken into Cos 7 cells by the action of human IBAT or rat IBAT. The cells were washed twice with the assay buffer containing 1 mM taurocholate, and subsequently lysed with 0.2 M NaOH to stop the reaction. The cell lysate was added to 4 mL of liquid scintillation cocktail, which was then thoroughly vortexed. Then the radioactivity was measured using the liquid scintillation counter.

IC50 [nM] | Compound
58 | CCCCC1(CCCC)CS(=O)(=O)c2ccc(N(C)C)cc2C(c2cccc(NC(=S)Nc3ccc(C[N+](C)(CCC)CCC)cc3)c2)N1 (racemic) [EXAMPLE 3426]
55 | CCCCC1(CCCC)CS(=O)(=O)c2ccc(N(C)C)cc2C(c2cccc(NC(=S)Nc3ccc(C[N+](C)(C)Cc4cccs4)cc3)c2)N1 (racemic) [EXAMPLE 3449]
68 | CCCCC1(CCCC)CS(=O)(=O)c2ccc(N(C)C)cc2C(c2cccc(NC(=S)Nc3ccc(C[N+](C)(C)CC(C)O)cc3)c2)N1 (racemic) [EXAMPLE 3454]
127 | CCCCC1(CCCC)CS(=O)(=O)c2ccc(N(C)C)cc2C(c2cccc(NC(=S)Nc3ccc(C[N+](C)(C)CCN(C)C)cc3)c2)N1 (racemic) [EXAMPLE 3506]
70 | CCCCC1(CCCC)CS(=O)(=O)c2ccc(N(C)C)cc2C(c2cccc(NC(=S)Nc3ccc(C[N+]4(C)CCCCC4)cc3)c2)N1 (racemic) [EXAMPLE 3587]
69 | CCCCC1(CCCC)CS(=O)(=O)c2ccc(N(C)C)cc2C(c2cccc(NC(=S)Nc3ccc(C[N+]45CCC(CC4)C(O)C5)cc3)c2)N1 (racemic) [EXAMPLE 3697]
70 | CCCCC1(CCCC)CS(=O)(=O)c2ccc(N(C)C)cc2C(c2cccc(NC(=S)Nc3ccc(C[n+]4ccccc4)cc3)c2)N1 (racemic) [EXAMPLE 3708]
39 | CCCCC1(CCCC)CS(=O)(=O)c2ccc(N(C)C)cc2C(c2cccc(NC(=S)Nc3ccc(C[n+]4cccc(CC)c4)cc3)c2)N1 (racemic) [EXAMPLE 3722]
73 | CCCCC1(CCCC)CS(=O)(=O)c2ccc(N(C)C)cc2C(c2cccc(NC(=S)Nc3ccc(C[n+]4cccc(-c5cccs5)c4)cc3)c2)N1 (racemic) [EXAMPLE 3726]
84 | CCCCC1(CCCC)CS(=O)(=O)c2ccc(N(C)C)cc2C(c2cccc(NC(=S)Nc3ccc(C[n+]4cc(C)cc(-c5ccccc5)c4)cc3)c2)N1 (racemic) [EXAMPLE 3730]
81 | CCCCC1(CCCC)CS(=O)(=O)c2ccc(N(C)C)cc2C(c2cccc(NC(=S)Nc3ccc(C[n+]4cccc(C(=O)c5ccccc5)c4)cc3)c2)N1 (racemic) [EXAMPLE 3748]
92 | CCCCC1(CCCC)CS(=O)(=O)c2ccc(N(C)C)cc2C(c2cccc(NC(=S)Nc3ccc(C[n+]4ccc(NC=O)cc4)cc3)c2)N1 (racemic) [EXAMPLE 3754]
80 | CCCCC1(CCCC)CS(=O)(=O)c2ccc(N(C)C)cc2C(c2cccc(NC(=S)Nc3ccc(C[n+]4ccc(CCc5ccncc5)cc4)cc3)c2)N1 (racemic) [EXAMPLE 3764]
100 | CCCCC1(CCCC)CS(=O)(=O)c2ccc(N(C)C)cc2C(c2cccc(NC(=S)Nc3ccc(C[n+]4ccc(N(C)C)cc4)cc3)c2)N1 (racemic) [EXAMPLE 4210]
97 | CCCCC1(CCCC)CS(=O)(=O)c2ccc(N(C)C)cc2C(c2cccc(NC(=S)Nc3ccc(C[n+]4ccc(C(C)O)cc4)cc3)c2)N1 (racemic) [EXAMPLE 5411]
26 | CCCCC1(CCCC)CS(=O)(=O)c2ccc(N(C)C)cc2C(c2cccc(NC(=S)Nc3ccc(C[n+]4cc(O)cc(Cl)c4)cc3)c2)N1 (racemic) [EXAMPLE 5417]
100 | CCCCC1(CCCC)CS(=O)(=O)c2ccc(N(C)C)cc2C(c2cccc(NC(=S)NCCC[N+]3(Cc4ccccc4)CCCC(CO)C3)c2)N1 (centres unmarked) [EXAMPLE 592]
92 | CCCCC1(CCCC)CS(=O)(=O)c2ccc(N(C)C)cc2C(c2cccc(NC(=S)NCCC[N+]3(Cc4ccccc4)CCC(CCO)CC3)c2)N1 (centres unmarked) [EXAMPLE 593]
68 | CCCCCC[N+](C)(C)Cc1ccc(NC(=S)Nc2cccc(C3NC(CCCC)(CCCC)CS(=O)(=O)c4ccc(N(C)C)cc43)c2)cc1 (centres unmarked) [EXAMPLE 3410]
75 | CCCCCCCC[N+](C)(C)Cc1ccc(NC(=S)Nc2cccc(C3NC(CCCC)(CCCC)CS(=O)(=O)c4ccc(N(C)C)cc43)c2)cc1 (centres unmarked) [EXAMPLE 3412]
73 | CCCCCCCCC[N+](C)(C)Cc1ccc(NC(=S)Nc2cccc(C3NC(CCCC)(CCCC)CS(=O)(=O)c4ccc(N(C)C)cc43)c2)cc1 (centres unmarked) [EXAMPLE 3413]
88 | CCCCCCCCCC[N+](C)(C)Cc1ccc(NC(=S)Nc2cccc(C3NC(CCCC)(CCCC)CS(=O)(=O)c4ccc(N(C)C)cc43)c2)cc1 (centres unmarked) [EXAMPLE 3414]
55 | C=CC[N+](C)(C)Cc1ccc(NC(=S)Nc2cccc(C3NC(CCCC)(CCCC)CS(=O)(=O)c4ccc(N(C)C)cc43)c2)cc1 (centres unmarked) [EXAMPLE 3429]

IC50 [nM] | Compound
55 | C#CC[N+](C)(C)Cc1ccc(NC(=S)Nc2cccc(C3NC(CCCC)(CCCC)CS(=O)(=O)c4ccc(N(C)C)cc43)c2)cc1 (centres unmarked) [EXAMPLE 3433]
71 | CCC#CC[N+](C)(C)Cc1ccc(NC(=S)Nc2cccc(C3NC(CCCC)(CCCC)CS(=O)(=O)c4ccc(N(C)C)cc43)c2)cc1 (centres unmarked) [EXAMPLE 3434]
85 | CCCCC1(CCCC)CS(=O)(=O)c2ccc(N(C)C)cc2C(c2cccc(NC(=S)Nc3ccc(C[N+](C)(C)C(C)c4ccccc4)cc3)c2)N1 (centres unmarked) [EXAMPLE 3441]
70 | CCCCC1(CCCC)CS(=O)(=O)c2ccc(N(C)C)cc2C(c2cccc(NC(=S)Nc3ccc(C[N+](C)(C)CCOC(=O)c4ccccc4)cc3)c2)N1 (centres unmarked) [EXAMPLE 3558]
94 | CCCCC1(CCCC)CS(=O)(=O)c2ccc(N(C)C)cc2C(c2cccc(NC(=S)Nc3ccc(C[N+]4(CC)CCCC4)cc3)c2)N1 (centres unmarked) [EXAMPLE 3568]
70 | CCCCC1(CCCC)CS(=O)(=O)c2ccc(N(C)C)cc2C(c2cccc(NC(=S)Nc3ccc(C[N+]4(Cc5ccccc5)CCCCC4)cc3)c2)N1 (centres unmarked) [EXAMPLE 3593]
54 | CCCCC1(CCCC)CS(=O)(=O)c2ccc(N(C)C)cc2C(c2cccc(NC(=S)Nc3ccc(C[N+]4(C)CCC(O)CC4)cc3)c2)N1 (centres unmarked) [EXAMPLE 3599]
45 | CCCCC1(CCCC)CS(=O)(=O)c2ccc(N(C)C)cc2C(c2cccc(NC(=S)Nc3ccc(C[N+]4(Cc5ccccc5)CCCC(O)C4)cc3)c2)N1 (centres unmarked) [EXAMPLE 3604]
72 | CCCCC1(CCCC)CS(=O)(=O)c2ccc(N(C)C)cc2C(c2cccc(NC(=S)Nc3ccc(C[N+]45CCC(CC4)C(=O)C5)cc3)c2)N1 (centres unmarked) [EXAMPLE 3698]
63 | CCCCC1(CCCC)CS(=O)(=O)c2ccc(N(C)C)cc2C(c2cccc(NC(=S)Nc3ccc(C[n+]4ccc(CCC)cc4)cc3)c2)N1 (centres unmarked) [EXAMPLE 3711]
58 | CCCCC1(CCCC)CS(=O)(=O)c2ccc(N(C)C)cc2C(c2cccc(NC(=S)Nc3ccc(C[n+]4ccc(C(CC)CC)cc4)cc3)c2)N1 (centres unmarked) [EXAMPLE 3714]
89 | CCCCC(CCCC)c1cc[n+](Cc2ccc(NC(=S)Nc3cccc(C4NC(CCCC)(CCCC)CS(=O)(=O)c5ccc(N(C)C)cc54)c3)cc2)cc1 (centres unmarked) [EXAMPLE 3716]
30 | CCCCC1(CCCC)CS(=O)(=O)c2ccc(N(C)C)cc2C(c2cccc(NC(=S)Nc3ccc(C[n+]4ccc(-c5ccccc5)cc4)cc3)c2)N1 (centres unmarked) [EXAMPLE 3717]
69 | CCCCC1(CCCC)CS(=O)(=O)c2ccc(N(C)C)cc2C(c2cccc(NC(=S)Nc3ccc(C[n+]4cccc(-c5ccccc5)c4)cc3)c2)N1 (centres unmarked) [EXAMPLE 3724]
52 | CCCCC1(CCCC)CS(=O)(=O)c2ccc(N(C)C)cc2C(c2cccc(NC(=S)Nc3ccc(C[n+]4cccc(Cc5ccccc5)c4)cc3)c2)N1 (centres unmarked) [EXAMPLE 3725]
66 | CCCCC1(CCCC)CS(=O)(=O)c2ccc(N(C)C)cc2C(c2cccc(NC(=S)Nc3ccc(C[n+]4ccc(C)c(C)c4)cc3)c2)N1 (centres unmarked) [EXAMPLE 3727]
88 | CCCCC1(CCCC)CS(=O)(=O)c2ccc(N(C)C)cc2C(c2cccc(NC(=S)Nc3ccc(C[n+]4cc(C)cc(C)c4)cc3)c2)N1 (centres unmarked) [EXAMPLE 3729]
57 | CCCCC1(CCCC)CS(=O)(=O)c2ccc(N(C)C)cc2C(c2cccc(NC(=S)Nc3ccc(C[n+]4ccc(CCCO)cc4)cc3)c2)N1 (centres unmarked) [EXAMPLE 3733]
50 | CCCCC1(CCCC)CS(=O)(=O)c2ccc(N(C)C)cc2C(c2cccc(NC(=S)Nc3ccc(C[n+]4ccc(C(C)=O)cc4)cc3)c2)N1 (centres unmarked) [EXAMPLE 3736]
75 | CCCCCCOC(=O)c1ccc[n+](Cc2ccc(NC(=S)Nc3cccc(C4NC(CCCC)(CCCC)CS(=O)(=O)c5ccc(N(C)C)cc54)c3)cc2)c1 (centres unmarked) [EXAMPLE 3750]
28 | CCCCC1(CCCC)CS(=O)(=O)c2ccc(N(C)C)cc2C(c2cccc(NC(=S)CCCCC[N+]34CCC(CC3)C(O)C4)c2)N1 (centres unmarked) [EXAMPLE 3854]
52 | CCCCC1(CCCC)CS(=O)(=O)c2ccc(N(C)C)cc2C(c2cccc(NC(=S)Nc3ccc(C[n+]4ccccc4C)cc3)c2)N1 (centres unmarked) [EXAMPLE 5407]
42 | CCCCC1(CCCC)CS(=O)(=O)c2ccc(N(C)C)cc2C(c2cccc(NC(=S)Nc3ccc(C[n+]4c(C)cc(C)cc4C)cc3)c2)N1 (centres unmarked) [EXAMPLE 5409]

same assay, conditions: [3H]-taurocholate 8 μM, 37° C., 60 minutes

Compound | IC50 [nM]
CCCCC1(CCCC)CS(=O)(=O)c2ccc(N(C)C)cc2C(c2cccc(NC(=S)Nc3ccc(C[n+]4ccccc4OCC)cc3)c2)N1 (racemic) [EXAMPLE 5415] | 44
